Earlier results on 1 compound are cited in patent US8664239B2, “Tacrolimus for improved treatment of transplant patients” (Veloxis Pharmaceuticals A/S, priority 2007, dated 2014).

Molecules are shown by their SMILES. Where two headings read alike, the source gives them in different places.

Broadly, the bioavailability is dose-corrected exposure relative to a reference, in per cent.

Experiment in series [1]: not given
This is another data set of the same source.

With `C=CC[C@@H]1/C=C(\C)C[C@H](C)C[C@H](OC)[C@H]2O[C@@](O)(C(=O)C(=O)N3CCCC[C@H]3C(=O)O[C@H](/C(C)=C/[C@@H]3CC[C@@H](O)[C@H](OC)C3)[C@H](C)[C@@H](O)CC1=O)[C@H](C)C[C@@H]2OC` [Tacrolimus], the solubility entry is, setting by setting: (in chloroform) “very soluble”; (in ethanol) “freely soluble”; (in methanol) “very soluble”; (in water) “practically insoluble”. The bioavailability in series [1] (after oral administration) is not above 20%. For the same compound, the “mean time-to-peak concentration (tmax)” value in series [1] (oral administration, healthy subjects or kidney or liver transplanted patients) was 1 to 2 h.
